Laboratory results taken from patent publication US11930822B2, “Methylobacterium compositions for fungal disease control” (priority 2017, dated 2024).

What was measured:
[1] = tested on: P. torulosum, P. oopapillum, P. sylvaticum and P. lutarium; assay: Greenhouse Pythium assay in soybean, consortium of 4 Pythium species; type: in vivo, Pythium spp.
Description: (§1) A greenhouse experiment was conducted is to evaluate the ability of Methylobacterium strains to suppress Pythium disease in soybean. Methylobacterium treatments were compared to treatments with metalaxyl at various rates to determine if Methylobacterium strains can provide protection beyond and in addition to the level of protection provided by commonly used agronomic seed treatments. The experiment was designed to allow for growth of plants for in the presence of moderate levels of Pythium. spp. to determine impacts on emergence, % dead seed and root rot incidence and severity.
(§2) Pythium inoculants were prepared by mixing 453 g of parboiled rice and 323 mL of distilled water, placing the rice in a vented autoclavable plastic bag, and autoclaving 2×40 minutes with each cycle separated by 24 hours. Rice was inoculated with 3-4-day-old Pythium cultures and incubated for 7-10 days at 23 °C in the dark. The inoculum was then dried for 2 days.
(§3) A 20 ml layer of rice inoculum is placed on soil in cups and additional soil layered on top of the inoculum to position the inoculum approximately 2-3 cm below the seeds to be planted. Water is added to the soil and 10 seeds are planted in each cup. Domes are placed over the cups and the cups are placed in growth chambers with temperature set at 230C, and on a diurnal cycle of 16 h light and 8 h dark. The seeds are incubated for 14 days at 23 °C. For experiments to assess activity of Methylobacterium strains against a consortium of 4 Pythium species, the seeds are incubated for 14 days at 130C and for an additional 7 days at 23 °C.
(§4) Plants are rated when the first trifoliate is fully emerged and open to determine total plant weight, number of seedlings and number of dead seeds. Disease incidence is evaluated as percent plants with rotted roots and disease severity as percent rotted root tissue for each seedling.
Results from inoculation with a consortium of 4 Pythium species at alternating temperature of 130C and 230C are shown in Tables 35-36 below. The four species, which are all important pathogens of corn and soybean, are P. torulosum, P. oopapillum, P. sylvaticum and P. lutarium.

Pythium sylvaticum = assay: Greenhouse Pythium assay in soybean, Pythium sylvaticum; type: in vivo
Description: as §1, §2, §3, §4

Pythium lutarium = assay: Greenhouse Pythium assay in soybean, Pythium lutarium; type: in vivo
Description: as §1, §2, §3, §4

SMILES: COCC(=O)N(c1c(C)cccc1C)C(C)C(=O)OC (stereo not drawn) [metalaxyl]
- Mean Dead Seed (%) ([1]; Table 35, 0.35 Fl. oz/cwt): 6%
- Mean Emergence (%) ([1]; Table 35, 0.35 Fl. oz/cwt): 94%
- Mean Dead Seed (%) ([1]; Table 35, 0.75 Fl. oz/cwt): 2%
- Mean Emergence (%) ([1]; Table 35, 0.75 Fl. oz/cwt): 100%
- Mean Dead Seed (%) ([1]; Table 35, 1.25 Fl. oz/cwt): 2%
- Mean Emergence (%) ([1]; Table 35, 1.25 Fl. oz/cwt): 94%
- Root Rot INC (%) ([1]; Table 36, 0.35 Fl. oz/cwt): 94%
- Root Rot Severity (%) ([1]; Table 36, 0.35 Fl. oz/cwt): 13%
- Root Rot INC (%) ([1]; Table 36, 0.75 Fl. oz/cwt): 100%
- Root Rot Severity (%) ([1]; Table 36, 0.75 Fl. oz/cwt): 12%
- Root Rot INC (%) ([1]; Table 36, 1.25 Fl. oz/cwt): 94%
- Root Rot Severity (%) ([1]; Table 36, 1.25 Fl. oz/cwt): 9%
- % Dead Seed (Pythium sylvaticum; Table 31, 0.35 Fl. oz/cwt): 18%
- Emergence (Pythium sylvaticum; Table 31, 0.35 Fl. oz/cwt): 82
- Mean Emergence (%) (Pythium sylvaticum; Table 32, 0.35 Fl. oz/cwt): 78%
- Mean Root Rot Severity (%) (Pythium sylvaticum; Table 32, 0.35 Fl. oz/cwt): 17%
- Mean Emergence (%) (Pythium sylvaticum; Table 32, 0.75 Fl. oz/cwt): 92%
- Mean Root Rot Severity (%) (Pythium sylvaticum; Table 32, 0.75 Fl. oz/cwt): 18%
- Mean Emergence (%) (Pythium sylvaticum; Table 32, 1.25 Fl. oz/cwt): 78%
- Mean Root Rot Severity (%) (Pythium sylvaticum; Table 32, 1.25 Fl. oz/cwt): 21%
- % Dead Seed (Pythium lutarium; Table 33, 0.75 Fl. oz/cwt): 3%
- Mean Emergence (%) (Pythium lutarium; Table 33, 0.75 Fl. oz/cwt): 97%
- % Dead Seed (Pythium lutarium; Table 33, 1.25 Fl. oz/cwt): 67%
- Mean Emergence (%) (Pythium lutarium; Table 33, 1.25 Fl. oz/cwt): 93%
- Mean Root Rot Incidence (%) (Pythium lutarium; Table 34, 0.35 Fl. oz/cwt): 95%
- Mean Root Rot Severity (%) (Pythium lutarium; Table 34, 0.35 Fl. oz/cwt): 13%
- Mean Root Rot Incidence (%) (Pythium lutarium; Table 34, 0.75 Fl. oz/cwt): 95%
- Mean Root Rot Severity (%) (Pythium lutarium; Table 34, 0.75 Fl. oz/cwt): 10%
- Mean Root Rot Incidence (%) (Pythium lutarium; Table 34, 1.25 Fl. oz/cwt): 93%
- Mean Root Rot Severity (%) (Pythium lutarium; Table 34, 1.25 Fl. oz/cwt): 11%
